According to patent US10828326B2, “Compositions and methods for treating and preventing venom related poisoning” (priority 2015, dated 2020):

System: human plasma
Assay: Thrombelastography of venom naïve human plasma with iron and/or CO addition (Example I)
Assay type: biochemical
Settings: baseline (venom naïve); 10 μM FeCl3 and/or 100 μM CORM-2; compared to plasma without any additions
Description: Two-hundred mg of lyophilized, pooled venom was obtained from four western diamondback rattlesnakes (Crotalus atrox) for experimentation. Venom was reconstituted in calcium-free phosphate buffered saline (PBS, Sigma-Aldrich, Saint Louis, Mo., USA) at a concentration of 20 mg/ml, aliquoted, and then stored at −80° C. until experimentation at the University of Arizona. Pooled human normal plasma (George King Bio-Medical, Overland Park, Kans., USA) anticoagulated with sodium citrate was rapidly thawed at 37° C. and used for experimentation. To assess the effects of pretreatment of fibrinogen with iron, CO, or both, 1% additions of PBS, ferric chloride (FeCl3, 99.9% pure, Sigma-Aldrich, Saint Louis, Mo., USA) in PBS, or CORM-2 (tricarbonyldichlororuthenium (II) dimer, a CO releasing molecule, Sigma-Aldrich, Saint Louis, Mo., USA) dissolved in dimethyl sulfoxide (DMSO, Sigma-Aldrich, Saint Louis, Mo., USA). The final concentrations of FeCl3 and CORM-2 were 10 μM and 100 μM, respectively; these concentrations are associated with nearly maximal augmenting effects on coagulation kinetics (see, Nielsen V G, et al., Blood Coagul Fibrinolysis 2014; 25:695-702). Plasma was exposed to these various agents for at least 5 min prior to incubations with venom.
The final volume for all subsequently described plasma sample mixtures was 359.4 μl. Sample composition consisted of 326 μl of plasma; 10 μl of tissue factor reagent (0.1% final concentration in distilled water; Diagnostica Stago S.A.S., Asnieres sur Seine, France) and 3.4 μl of PBS or venom (final concentration 0.5 μg/ml). […] The aforementioned plasma and venom mixtures were placed in a disposable cup in a computer-controlled Thrombelastograph® hemostasis system (Model 5000, Haemoscope Corp., Niles, Ill., USA) and incubated for 5 or 20 min at 37° C., with addition of 20 μl of 200 mM CaCl2) as the last step to initiate clotting. Data were collected at 37° C. for 15 min after 5 min of incubation, whereas samples incubated with venom for 20 min had data collected for 30 min, given the prolonged onset of coagulation and diminished rate of thrombus formation. The following elastic modulus-based parameters previously described (see, Nielsen, et al., 2014, Blood Coagul. Fibrinolysis 25:695-702; Nielsen, et al., 2011, Blood Coagul. Fibrinolysis 22: 443-447); Nielsen V G, et al., Blood Coagul Fibrinolysis 2014; 25:845-850) were determined: time to maximum rate of thrombus generation (TMRTG): this is the time interval (min) observed prior to maximum speed of clot growth; maximum rate of thrombus generation (MRTG): this is the maximum velocity of clot growth observed (dynes/cm^2/sec); and total thrombus generation (TTG, dynes/cm^2), the final viscoelastic resistance observed after clot formation.
Data are presented as mean+SD. A commercially available statistical program was used for one-way analysis of variance followed by Holm-Sidak post hoc analyses (SigmaStat 3.1, Systat Software, Inc., San Jose, Calif., USA). Graphics depicting viscoelastic data were generated with a commercially available program (OrigenPro 7.5, OrigenLab Corporation, Northampton, Mass., USA; CorelDRAW12, Corel Corporation, Mountain View, Calif., USA).

[Cl][Fe]([Cl])[Cl] [iron, ferric chloride]
maximum rate of thrombus generation (MRTG): increases
time to maximum rate of thrombus generation (TMRTG): significantly decreases
total thrombus generation (TTG): does not affect
